Test results reported in the PolyMetriX glass transition set.

Row | Compound | glass transition temperature [°C]
1 | *CC#CC#CCOc1ccc(C(=O)OCCN(CCOC(=O)c2ccc(O*)cc2)c2ccc(/N=N/c3ccc(/N=N/c4cc(C)c([N+](=O)[O-])c(C)c4)cc3)cc2)cc1 (repeat unit) | 115.00
2 | *CC#CC#CCOc1ccc(C(=O)OCCN(CCOC(=O)c2ccc(O*)cc2)c2ccc(/N=N/c3ccc(C#N)cc3)cc2)cc1 (repeat unit) | 121.00
3 | *CC(C)N1C(=O)C2C3C=CC(C4C(=O)N(*)C(=O)C34)C2C1=O (repeat unit) | 212.00
4 | *CCC(=O)O* (repeat unit) | -24.00
5 | *CCC(C)CC(=O)O* (repeat unit) | -71.50
6 | *CCC(C)CCC(=O)S* (repeat unit) | -50.00
7 | *CCC1CC(=O)N(*)C1=O (repeat unit) | 131.00
8 | *CCCCCCNC(=O)CCP(=O)(CCC(=O)N*)c1ccccc1 (repeat unit) | 29.00
9 | *CCCCCCNC(=O)CCP(=S)(CCC(=O)N*)c1ccccc1 (repeat unit) | 43.00
10 | *CCCCOCO* (repeat unit) | -84.00
11 | *CCCS* (repeat unit) | -53.50
12 | *CCC[Si](*)(C)c1cccc(C)c1 (repeat unit) | -25.00
13 | *CCN(*)C(=O)C(C)C (repeat unit) | 30.00
14 | *CCN(*)C(=O)C(OC)(c1ccccc1)C(F)(F)F (repeat unit) | 89.00
15 | *CCN(*)C(=O)C1(c2ccc(Cl)cc2)CCC1 (repeat unit) | 112.00
16 | *CCN(*)C(=O)C1CC1 (repeat unit) | 77.00
17 | *CCN(*)C(=O)CCC (repeat unit) | 42.00
18 | *CCN(*)C(=O)CCCC (repeat unit) | 13.00
19 | *CCN(*)C(=O)c1c(F)cc(F)cc1F (repeat unit) | 135.00

Row | Compound | glass transition temperature [°C]
20 | *CCN(*)C(=O)c1c(F)cccc1F (repeat unit) | 121.50
21 | *CCN(*)C(=O)c1cc(F)c(F)c(F)c1F (repeat unit) | 97.00
22 | *CCN(*)C(=O)c1cc(F)c(F)cc1F (repeat unit) | 105.00
23 | *CCN(*)C(=O)c1ccc(F)cc1 (repeat unit) | 104.00
24 | *CCN(*)C(=O)c1cccc(F)c1 (repeat unit) | 97.00
25 | *CCN(*)C(=O)c1ccccc1F (repeat unit) | 109.00
26 | *CCN(*)CC (repeat unit) | -32.00
27 | *CCN(*)CCOCCOC (repeat unit) | 16.00
28 | *CCN(*)CC[Si](C)(C)C (repeat unit) | -64.80
29 | *CCN(*)Cc1ccccc1 (repeat unit) | -16.00
30 | *CCN(C)C(=O)CCCCCCCCC(=O)N(*)C (repeat unit) | 0.00
31 | *CCc1ccc(*)c(Br)c1 (repeat unit) | 80.00
32 | *CCc1ccc(*)c(C#N)c1 (repeat unit) | 90.00
33 | *CCc1ccc(*)c(CC)c1 (repeat unit) | 25.00
34 | *CCc1ccc(*)c(CCCC)c1 (repeat unit) | 20.00
35 | *O[Si](C)(C)CC[Si](*)(C)O[Si](C)(C)C (repeat unit) | -89.00
36 | *c1ccc(OCCN(CCOc2ccc(-c3cc(-c4ccccc4)c4cc(Oc5ccc6nc(*)cc(-c7ccccc7)c6c5)ccc4n3)cc2)c2ccc(C(C#N)=C(C#N)C#N)cc2)cc1 (repeat unit) | 175.00
37 | *c1ccc(OCCN(CCOc2ccc(-c3nc4ccc(Oc5ccc6nc(*)c(-c7ccccc7)nc6c5)cc4nc3-c3ccccc3)cc2)c2ccc(/N=N/c3ccc([N+](=O)[O-])cc3)cc2)cc1 (repeat unit) | 199.00
38 | *c1ccc(OCCN(CCOc2ccc(-c3nc4ccc(Oc5ccc6nc(*)c(-c7ccccc7)nc6c5)cc4nc3-c3ccccc3)cc2)c2ccc(/N=N/c3ccc([N+](=O)[O-])cc3C)cc2)cc1 (repeat unit) | 188.00

Next, values leading:

Row | glass transition temperature [°C] | Compound
39 | 181.40 | *C(CC(C)C)C(=O)Nc1ccc(Oc2ccc(NC(=O)Nc3ccc(Cc4ccc(NC(=O)Nc5ccc(Oc6ccc(NC(=O)C(CC(C)C)n7c(=O)c8cc9c(=O)n(*)c(=O)c9cc8c7=O)cc6)cc5)cc4)cc3)cc2)cc1 (repeat unit)
40 | 72.00 | *CC(=O)NCCCCCCNC(=O)CCc1ccc(O*)cc1 (repeat unit)
41 | 233.00 | *CC(=O)Nc1ccc(Cc2ccc(NC(=O)CN3C(=O)c4ccc(C(=O)c5ccc6c(c5)C(=O)N(*)C6=O)cc4C3=O)cc2)cc1 (repeat unit)
42 | 292.00 | *CC(=O)Nc1ccc(NC(=O)c2ccc3c(c2)C(=O)N(*)C3=O)cc1 (repeat unit)
43 | 262.00 | *CC(=O)Nc1ccc(Oc2ccc(NC(=O)c3ccc4c(c3)C(=O)N(*)C4=O)cc2)cc1 (repeat unit)
44 | 242.00 | *CC(=O)Nc1ccc(Oc2ccc(Oc3ccc(NC(=O)c4ccc5c(c4)C(=O)N(*)C5=O)cc3)cc2)cc1 (repeat unit)
45 | 220.00 | *CC(=O)Nc1ccc(Oc2cccc(Oc3ccc(NC(=O)c4ccc5c(c4)C(=O)N(*)C5=O)cc3)c2)cc1 (repeat unit)
46 | 160.00 | *CC(O)CN(*)c1ccc(/N=N/c2ccc(Cl)cc2)cc1 (repeat unit)
47 | 27.00 | *CCC(=O)NCCCCCCNC(=O)CCS* (repeat unit)
48 | 224.00 | *CCC(=O)Nc1ccc(Oc2cccc(NC(=O)CCN3C(=O)c4ccc(C(=O)c5ccc6c(c5)C(=O)N(*)C6=O)cc4C3=O)c2)cc1 (repeat unit)
49 | 147.00 | *CCC(C)CC(C)(C)CNC(=O)c1ccc(C(=O)N*)cc1 (repeat unit)
50 | -78.60 | *CCC(C)CCOC(=O)CCCCC(=O)O* (repeat unit)
51 | 65.00 | *CCCCCCCCCCCCCCCCCCNC(=O)CCc1ccc(CCC(=O)N*)cc1 (repeat unit)
52 | 87.00 | *CCCCCCNC(=O)CCc1ccc(CC(=O)N*)cc1 (repeat unit)
53 | 85.00 | *CCCCCCNC(=O)CCc1ccc(CCC(=O)N*)cc1 (repeat unit)
54 | -19.10 | *CCC[Si](*)(C)O[Si](C)(C)CCCOc1ccc(C(=O)Oc2ccc(C#N)cc2)cc1 (repeat unit)
55 | 52.00 | *CCC[Si](*)(c1ccccc1)c1ccc(N(C)C)cc1 (repeat unit)
56 | 75.00 | *CCN(CCOC(=O)NCCCCCCNC(=O)O*)c1ccc(/N=N/c2ccc([N+](=O)[O-])cc2)c(C)c1 (repeat unit)

Row | glass transition temperature [°C] | Compound
57 | 121.00 | *CCN(CCOC(=O)Nc1ccc(C)c(NC(=O)O*)c1)c1ccc(/C=C/c2cc[n+](CCCC)cc2)cc1 (repeat unit)
58 | 158.00 | *CCN(CCOC(=O)Nc1ccc(C)c(NC(=O)O*)c1)c1ccc(/N=N/c2ccc(-c3nc4ccc([N+](=O)[O-])cc4n3CC)cc2)cc1 (repeat unit)
59 | 148.00 | *CCN(CCOC(=O)Nc1ccc(C)c(NC(=O)O*)c1)c1ccc(/N=N/c2ccc(/N=N/c3cc(OC)c(/N=N/c4ccc([N+](=O)[O-])cc4)cc3OC)c(C)c2)cc1 (repeat unit)
60 | 137.00 | *CCN(CCOC(=O)Nc1ccc(C)c(NC(=O)O*)c1)c1ccc(/N=N/c2ccc([N+](=O)[O-])cc2C)cc1 (repeat unit)
61 | 130.00 | *CCN(CCOC(=O)c1cc(OCc2cc(OCc3ccccc3)cc(OCc3ccccc3)c2)cc(C(=O)O*)c1)c1ccc(/C=C/c2ccc(/C=C/C3=C(C#N)C(=C(C#N)C#N)OC3(c3ccccc3)C(F)(F)F)s2)cc1 (repeat unit)
62 | 146.00 | *CCN(CCOC(=O)c1ccc(C(=O)O*)c(OC)c1)c1ccc(/N=N/c2ccc(-c3nc4ccc([N+](=O)[O-])cc4n3CC)cc2)cc1 (repeat unit)
63 | 173.00 | *CCN(CCOC(=O)c1ccc(C(=O)O*)c(OC)c1)c1ccc(/N=N/c2ccc(/C=C/c3nc4ccc([N+](=O)[O-])cc4n3CC)cc2)cc1 (repeat unit)
64 | 127.00 | *CCN(CCOC(=O)c1ccc(C(=O)O*)cc1)c1ccc(C=C(C#N)C#N)cc1 (repeat unit)
65 | 12.00 | *CCSCc1ccc(Cc2ccc(CSCCOC(=O)CCSCc3ccc(Cc4ccc(CSCCC(=O)O*)cc4)cc3)cc2)cc1 (repeat unit)
66 | 54.50 | *Oc1ccc(CC(NC(=O)CCc2ccc(OC(=O)CCCCC(*)=O)cc2)C(=O)OCc2ccccc2)cc1 (repeat unit)
67 | 76.00 | *Oc1ccc(CC(NC(=O)CCc2ccc(OC(=O)COCC(*)=O)cc2)C(=O)OCc2ccccc2)cc1 (repeat unit)
68 | 208.1 | *Oc1ccc(NC(=O)c2cc(C(=O)Nc3ccc(*)cc3)c(C(=O)OCC)cc2C(=O)OCC)cc1 (repeat unit)
69 | 272.00 | *Oc1ccc(NC(=O)c2cc(C(=O)Nc3ccc(Oc4ccc(C5(c6ccc(*)cc6)CC6CCC5C6)cc4)cc3)cc(C(C)(C)C)c2)cc1 (repeat unit)
70 | 260.00 | *Oc1ccc(NC(=O)c2cc(C(c3ccc(C(=O)O)c(C(=O)Nc4ccc(Oc5ccc(C(c6ccc(*)cc6)(C(F)(F)F)C(F)(F)F)cc5)cc4)c3)(C(F)(F)F)C(F)(F)F)ccc2C(=O)O)cc1 (repeat unit)
71 | 200.00 | *Oc1ccc(NC(=O)c2cc(NC(=O)CCCCCN3C(=O)c4ccccc4C3=O)cc(C(=O)Nc3ccc(*)cc3)c2)cc1 (repeat unit)
72 | 240.00 | *Oc1ccc(NC(=O)c2cc(NC(=O)CCN3C(=O)c4ccccc4C3=O)cc(C(=O)Nc3ccc(*)cc3)c2)cc1 (repeat unit)
73 | 260.00 | *c1ccc(OCCN(C)c2ccc(/C=C/C3=CC(=C4/C(=O)c5ccccc5C4=C(C#N)C#N)/C=C(/C=C/c4ccc(N(C)CCOc5ccc(-c6nc7ccc(Oc8ccc9nc(*)c(-c%10ccccc%10)nc9c8)cc7nc6-c6ccccc6)cc5)cc4)O3)cc2)cc1 (repeat unit)
